Results reported in the NIST ThermoML archive (doi:10.1021/je100089s).

Assays:
[1] = xn = mol fraction of the nth substance listed; conditions: Liquid, Vibrating tube method, x1 = 1
[2] = Liquid, Vibrating tube method

C[S+](C)[O-] [dimethyl sulfoxide] + OCCO
mass density [kg/m3], [1]
Conditions	101 kPa	10000 kPa	25000 kPa	50000 kPa	75000 kPa	100000 kPa
298.15 K	1095.36	1101.16	1109.51	1122.86	–	–
308.15 K	1085.36	1091.6	1100.65	1115.13	1128.21	1136.76
323.15 K	1070.28	1076.9	1086.87	1102.44	1115.12	1123.25

OCCO [1,2-ethanediol]
mass density [kg/m3], [2]
Conditions	101 kPa	10000 kPa	25000 kPa	50000 kPa	75000 kPa	100000 kPa
278.15 K	1123.77	1127.65	1133.2	1141.71	1149.55	1157.24
288.15 K	–	1120.87	1126.51	1135.26	1143.65	1151.55
298.15 K	–	1113.97	1119.78	1128.78	1137.41	1145.51
308.15 K	–	1107.05	1112.97	1122.28	1131.41	1139.57
323.15 K	1092.12	–	–	1112.75	1122.55	1130.66

C[S+](C)[O-] [dimethyl sulfoxide]
mass density [kg/m3], [2]
Conditions	101 kPa	10000 kPa	25000 kPa	50000 kPa	75000 kPa	100000 kPa
298.15 K	1095.36	1101.16	1109.51	1122.86	–	–
308.15 K	1085.36	1091.6	1100.65	1115.13	1128.21	1136.76
323.15 K	1070.28	1076.9	1086.87	1102.44	1115.12	1123.25
